Test [1] concerns the target Endoplasmic reticulum aminopeptidase 1 (Homo sapiens) (UniProt Q9NZ08). Description: Inhibition of recombinant C-terminal 10-His-tagged human ERAP1 at 100 uM using L-AMC as substrate preincubated for 30 mins followed by substrate addition measured every 3 mins for 1 hr by flourescence assay relative to control. The settings on record: time 90.0 min.
In test [2] the target is T1, Endoplasmic reticulum aminopeptidase 2 (Homo sapiens, UniProt Q6P179). The experiment in a line: Inhibition of recombinant ERAP2 (unknown origin) expressed in baculovirus infected insect cells at 2 mM using R-AMC as substrate preincubated for 30 mins followed by substrate addition and measured every 3 mins for 1 hr by flourescence assay relative to control. As to conditions: time 90.0 min.
T1 sequence (Q6P179 whole entry): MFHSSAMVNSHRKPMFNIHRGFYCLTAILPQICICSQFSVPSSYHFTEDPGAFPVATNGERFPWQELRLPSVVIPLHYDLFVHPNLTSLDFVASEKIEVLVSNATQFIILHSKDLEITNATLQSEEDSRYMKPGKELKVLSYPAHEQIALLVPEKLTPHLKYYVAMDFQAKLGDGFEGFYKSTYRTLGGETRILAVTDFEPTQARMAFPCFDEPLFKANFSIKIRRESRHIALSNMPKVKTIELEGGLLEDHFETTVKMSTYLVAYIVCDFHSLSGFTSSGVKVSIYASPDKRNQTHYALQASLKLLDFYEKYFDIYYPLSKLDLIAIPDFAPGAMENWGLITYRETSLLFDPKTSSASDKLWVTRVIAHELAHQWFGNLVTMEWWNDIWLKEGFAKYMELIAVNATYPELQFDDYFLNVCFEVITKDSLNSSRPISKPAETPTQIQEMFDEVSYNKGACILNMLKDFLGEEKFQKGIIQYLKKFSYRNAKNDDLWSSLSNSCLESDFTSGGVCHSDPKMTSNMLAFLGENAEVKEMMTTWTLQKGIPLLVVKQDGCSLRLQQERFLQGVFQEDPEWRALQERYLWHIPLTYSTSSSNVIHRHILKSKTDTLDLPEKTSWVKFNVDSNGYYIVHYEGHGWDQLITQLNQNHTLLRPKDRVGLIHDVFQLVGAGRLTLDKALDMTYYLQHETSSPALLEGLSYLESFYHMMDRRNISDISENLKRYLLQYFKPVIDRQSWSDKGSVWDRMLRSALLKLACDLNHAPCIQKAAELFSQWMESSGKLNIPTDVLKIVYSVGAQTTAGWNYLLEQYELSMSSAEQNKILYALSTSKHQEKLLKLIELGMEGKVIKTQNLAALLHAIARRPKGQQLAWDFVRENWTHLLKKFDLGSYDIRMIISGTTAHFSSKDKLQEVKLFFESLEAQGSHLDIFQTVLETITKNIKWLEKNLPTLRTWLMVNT

Test [3] addresses T1, Endoplasmic reticulum aminopeptidase 2. The experiment in a line: Activation of recombinant ERAP2 (unknown origin) expressed in baculovirus infected Hi-5 insect cells at 100 uM using R-AMC as substrate preincubated for 30 mins followed by substrate addition and measured every 3 mins for 1 hr by flourescence assay relative to control. The settings on record: filed as activator, time 90.0 min.

For test [4] the target is unchanged. The experiment in a line: Inhibition of human ERAP2.
Test [5] concerns the target Leucyl-cystinyl aminopeptidase (IRAP), Homo sapiens (UniProt Q9UIQ6). The experiment in a line: Inhibition of recombinant human IRAP expressed in HEK293 cells at 100 uM using L-AMC as substrate preincubated for 30 mins followed by substrate addition measured every 3 mins for 1 hr by flourescence assay relative to control. As to conditions: time 90.0 min.
The target in test [6] is T1, Endoplasmic reticulum aminopeptidase 2. The experiment in a line: Inhibition of human ERAP2 assessed as hydrolysis of KSIINFEKL to SIINFEKL measured after 2 hrs by LC-MS analysis.
Test [7] shares this target. Description: Inhibition of recombinant ERAP2 (unknown origin) expressed in baculovirus infected Hi-5 insect cells using R-AMC as substrate preincubated for 30 mins followed by substrate addition and measured every 3 mins for 1 hr by flourescence assay.

Where only a bound is given, the exact number is not on record here.

Sequence of Endoplasmic reticulum aminopeptidase 1 (Homo sapiens) (Q9NZ08 whole entry): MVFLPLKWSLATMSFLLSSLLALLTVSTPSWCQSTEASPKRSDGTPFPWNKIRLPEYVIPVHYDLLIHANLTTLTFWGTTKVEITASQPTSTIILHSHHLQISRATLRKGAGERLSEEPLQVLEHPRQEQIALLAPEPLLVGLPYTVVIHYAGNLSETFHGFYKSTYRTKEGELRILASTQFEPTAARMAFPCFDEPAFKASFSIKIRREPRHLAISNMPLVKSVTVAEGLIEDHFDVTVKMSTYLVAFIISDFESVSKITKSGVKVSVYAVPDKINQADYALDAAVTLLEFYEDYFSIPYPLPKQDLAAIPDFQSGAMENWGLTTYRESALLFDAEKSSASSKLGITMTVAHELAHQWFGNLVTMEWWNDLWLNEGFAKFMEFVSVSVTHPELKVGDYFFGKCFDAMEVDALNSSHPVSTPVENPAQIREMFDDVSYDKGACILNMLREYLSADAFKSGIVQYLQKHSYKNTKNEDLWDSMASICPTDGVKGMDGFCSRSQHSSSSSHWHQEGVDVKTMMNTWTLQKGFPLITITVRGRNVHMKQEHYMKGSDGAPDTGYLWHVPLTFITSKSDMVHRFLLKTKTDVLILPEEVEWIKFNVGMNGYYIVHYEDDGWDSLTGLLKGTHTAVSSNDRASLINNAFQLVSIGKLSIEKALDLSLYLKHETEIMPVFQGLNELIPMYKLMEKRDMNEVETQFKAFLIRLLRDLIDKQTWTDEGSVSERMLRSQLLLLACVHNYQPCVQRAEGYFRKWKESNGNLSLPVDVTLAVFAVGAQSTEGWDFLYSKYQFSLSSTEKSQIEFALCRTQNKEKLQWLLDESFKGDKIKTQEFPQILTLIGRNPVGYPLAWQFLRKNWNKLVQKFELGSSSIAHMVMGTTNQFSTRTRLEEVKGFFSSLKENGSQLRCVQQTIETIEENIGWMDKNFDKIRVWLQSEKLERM
Sequence of Leucyl-cystinyl aminopeptidase (IRAP), Homo sapiens (Q9UIQ6 whole entry, looked up): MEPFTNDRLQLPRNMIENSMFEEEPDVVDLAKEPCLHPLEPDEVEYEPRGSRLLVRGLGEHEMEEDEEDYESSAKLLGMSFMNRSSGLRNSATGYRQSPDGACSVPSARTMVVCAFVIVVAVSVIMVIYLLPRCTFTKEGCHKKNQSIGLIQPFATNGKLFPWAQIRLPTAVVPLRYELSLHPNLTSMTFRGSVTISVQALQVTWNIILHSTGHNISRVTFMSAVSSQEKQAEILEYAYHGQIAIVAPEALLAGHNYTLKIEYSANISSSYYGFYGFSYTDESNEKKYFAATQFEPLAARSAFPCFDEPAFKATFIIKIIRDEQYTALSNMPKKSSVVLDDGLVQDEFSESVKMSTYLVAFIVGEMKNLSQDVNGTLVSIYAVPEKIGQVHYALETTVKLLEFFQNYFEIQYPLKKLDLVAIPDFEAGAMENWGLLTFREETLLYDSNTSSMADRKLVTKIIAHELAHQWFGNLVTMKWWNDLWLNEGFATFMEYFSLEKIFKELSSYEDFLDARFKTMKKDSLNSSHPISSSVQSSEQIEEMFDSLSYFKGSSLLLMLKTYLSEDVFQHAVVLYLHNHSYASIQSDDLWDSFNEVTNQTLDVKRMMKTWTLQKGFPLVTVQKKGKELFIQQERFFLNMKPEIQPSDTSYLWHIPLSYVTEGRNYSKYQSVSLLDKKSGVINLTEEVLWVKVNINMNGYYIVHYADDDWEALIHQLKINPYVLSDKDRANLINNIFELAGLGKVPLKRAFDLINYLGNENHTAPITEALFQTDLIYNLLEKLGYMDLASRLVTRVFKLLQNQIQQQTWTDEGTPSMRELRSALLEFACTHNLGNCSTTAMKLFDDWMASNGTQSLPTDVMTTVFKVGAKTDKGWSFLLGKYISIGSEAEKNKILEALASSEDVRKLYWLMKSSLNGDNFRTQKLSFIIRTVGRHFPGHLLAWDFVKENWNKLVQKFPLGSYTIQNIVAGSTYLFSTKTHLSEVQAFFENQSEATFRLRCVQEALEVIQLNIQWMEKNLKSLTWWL

Regarding `O=C(O)CN(CC(=O)N1CCN(Cc2ccccc2)C[C@@H]1Cc1c[nH]c2ccccc12)c1ccccc1`, the inhibition (as a rule, the drop in the measured response relative to a control, in per cent) in test [1] is less than 10%.
Regarding `CC(C)C[C@H](NC(=O)[C@@H](O)[C@H](N)Cc1ccccc1)C(=O)O`, in test [2], the inhibition amounted to 100%.
As for `CC(C)C[C@@H](C(=O)O)N(C)C(=O)c1ccc(N(CCc2ccccc2)S(=O)(=O)c2ccc(F)cc2)cc1`, in test [3], the fold change (FC) was 1.46.
As to `C#CC[C@H](CP(=O)(O)[C@@H](N)CCc1ccccc1)C(=O)N[C@@H](Cc1ccccc1)C(N)=O`, in test [4], the IC50 (commonly the concentration needed to halve the response being measured) is 33 µM.
Take `CN(C(=O)c1ccc(N(CCc2ccccc2)S(=O)(=O)c2ccc(F)cc2)cc1)[C@@H](Cc1ccccc1)C(=O)O`: the fold change (FC) in test [3] was 1.84. In addition, the inhibition in test [5] was 50%; in test [1], less than 20%.
In the case of `CN(C(=O)c1ccc(N(CCc2ccccc2)S(=O)(=O)c2ccccc2)cc1)[C@@H](Cc1ccccc1)C(=O)O`, in test [3], the fold change (FC) was found to be 1.76. The inhibition in test [5] is 50%; in test [1], less than 20%. In test [6], the half-inhibitory concentration (IC50) was 89 µM.
Turning to `CC(C)C[C@@H](C(=O)O)N(C)C(=O)c1ccc(N(CCc2ccccc2)S(=O)(=O)c2ccccc2)cc1`, the fold change (FC) in test [3] stood at 1.43.
Turning to `CN(C(=O)c1ccc(N(CCN2CCCC2)S(=O)(=O)c2ccc(F)cc2)cc1)[C@@H](Cc1ccccc1)C(=O)O`, the IC50 was found to be 9.7 µM in test [7] and 98 µM in test [6]. In addition, the values for the inhibition in test [5] and in test [1] were 49% and 10%, respectively.

Values taken from ChEMBL document CHEMBL4819009, “Modulators of hERAP2 discovered by high-throughput screening” (Eur J Med Chem, 2021).
